The source of these data is patent publication US11046716B2, “Beta-lactamase inhibitors” (priority 2015, dated 2021).

The target of test [1] is T1, SHV-5 (Klebsiella pneumoniae, UniProt P0A3M1).
T1 construct: made in house; host or cells: E. coli BL21(DE3)
Briefly: β-lactamase enzyme inhibition assay, SHV-5 (cefotaxime substrate). The format is biochemical. The procedure, abridged: (§1)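 IC50 is the inhibitor level cutting initial substrate hydrolysis rate by 50% relative to no-inhibitor controls, after 15 min enzyme–inhibitor preincubation at 37 °C. KPC-2 read with imipenem at 300 nm, SHV-5 with cefotaxime at 260 nm; enzymes were untagged, E. coli-expressed, chromatographically purified.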

In test [2] the target is T2, KPC-2 (Klebsiella pneumoniae, UniProt Q9F663).
T2 construct: made in house; host or cells: E. coli BL21(DE3)
Briefly: β-lactamase enzyme inhibition assay, KPC-2 (imipenem substrate). Conditions: Class A; imipenem substrate, 300 nm; read-out: KPC-2. Type of test: biochemical. The procedure, abridged:
as §1

Test [3] deals with T3, VIM-2 (Escherichia coli, UniProt Q5U7L7).
T3 construct: made in house; host or cells: E. coli BL21(DE3)
Nature of the test: β-lactamase enzyme inhibition assay, VIM-2 (nitrocefin substrate). The format is biochemical. Conditions: Class B; nitrocefin substrate, 486 nm; read-out: VIM-2. The gist of the method:
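Enzyme + inhibitor, 37 °C, 15 min; nitrocefin 100 μM final; A486 read for 10 min. % inhibition vs no-inhibitor wells per concentration; IC50 = concentration halving initial hydrolysis rate.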

Test [4] has as its target T4, AmpC (Enterobacter cloacae, UniProt P05364).
T4 construct: made in house; host or cells: E. coli BL21(DE3)
Nature of the test: β-lactamase enzyme inhibition assay, p99 AmpC (nitrocefin substrate). The format is biochemical. The gist of the method:
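IC50 is the inhibitor level cutting initial substrate hydrolysis rate by 50% relative to no-inhibitor controls, after 15 min enzyme–inhibitor preincubation at 37 °C. enzymes were untagged, E. coli-expressed, chromatographically purified.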

The target in test [5] is OXA-48 (UniProt Q6XEC0). Nature of the test: β-lactamase enzyme inhibition assay, Class D oxacillinase. Conditions: read-out: OXA-48. Type of test: biochemical.
Test [6] concerns E. coli expressing the Class A Extended Spectrum Beta-Lactamase (ESBL) CTX-M-15. Briefly: Broth microdilution MIC assay with ceftazidime, E. coli CTX-M-15. The format is cell-based. Conditions: Fixed CAZ (ceftazidime) 4 μg/mL; E. coli ESBL4 CTX-M-15. The procedure, abridged:
(§2)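 CAMHB; cpd 2-fold serial dilution, 16–0.125 μg/mL final; β-lactam static 4 μg/ml; CLSI inoculation; 16–20 h, 37° C; MIC read by eye.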
For orientation: Broth dilution looks for growth in wells or tubes with falling amounts of substance.

Test [7] has as its system E. cloacae expressing the Class C P99. Briefly: Broth microdilution MIC assay with ceftazidime, E. cloacae P99. Type of test: cell-based. Conditions: Fixed CAZ (ceftazidime) 4 μg/mL; E. cl. 144200 p99 AmpC. The gist of the method: as §2
In test [8] the test system is K. pneumoniae expressing the Class A carbapenemase KPC-2. Nature of the test: Broth microdilution MIC assay with meropenem, K. pneumoniae KPC-2. Type of test: cell-based. Conditions: Fixed Mero (meropenem) 4 μg/mL; K. p. 156319 KPC-3. The procedure, abridged:
as §2

In test [9] the test system is P. aeruginosa expressing the Class B carbapenemase VIM-2. Briefly: Broth microdilution MIC assay with meropenem, P. aeruginosa VIM-2. Type of test: cell-based. Conditions: Fixed Mero (meropenem) 4 μg/mL; P. aerug. 2775 VIM-2. The procedure, abridged: as §2
The test system of test [10] is K. pneumoniae expressing the class A carbapenemase KPC-2 and the class B carbapenemase VIM-4. Nature of the test: Broth microdilution MIC assay with meropenem, K. pneumoniae KPC-2 and VIM-4. The format is cell-based. Conditions: Fixed Mero (meropenem) 4 μg/mL; K. p. A-1797 KPC-2 VIM-4. The gist of the method:
as §2

The test system of test [11] is K. pneumoniae producing the Class D carbapenemase OXA-48. Nature of the test: Broth microdilution MIC assay with meropenem, K. pneumoniae OXA-48. The format is cell-based. Conditions: Fixed Mero (meropenem) 4 μg/mL; K. p. 11978 OXA-48. The gist of the method: as §2

T1 sequence (P0A3M1 22-286): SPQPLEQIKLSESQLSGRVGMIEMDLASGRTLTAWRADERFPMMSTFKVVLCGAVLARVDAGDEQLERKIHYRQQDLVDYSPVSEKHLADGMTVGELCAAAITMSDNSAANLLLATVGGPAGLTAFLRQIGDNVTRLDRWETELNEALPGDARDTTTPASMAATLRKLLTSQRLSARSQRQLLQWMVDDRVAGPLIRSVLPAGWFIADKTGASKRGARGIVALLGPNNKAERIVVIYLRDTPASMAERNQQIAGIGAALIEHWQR
T2 sequence (Q9F663 25-293, looked up): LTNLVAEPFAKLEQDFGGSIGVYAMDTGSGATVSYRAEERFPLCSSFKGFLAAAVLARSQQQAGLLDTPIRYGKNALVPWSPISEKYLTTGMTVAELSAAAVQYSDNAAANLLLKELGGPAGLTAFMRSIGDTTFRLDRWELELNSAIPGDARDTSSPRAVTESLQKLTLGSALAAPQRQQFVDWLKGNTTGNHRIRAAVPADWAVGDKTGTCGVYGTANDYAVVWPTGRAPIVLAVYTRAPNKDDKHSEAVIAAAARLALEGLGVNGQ
T4 sequence (P05364 21-381): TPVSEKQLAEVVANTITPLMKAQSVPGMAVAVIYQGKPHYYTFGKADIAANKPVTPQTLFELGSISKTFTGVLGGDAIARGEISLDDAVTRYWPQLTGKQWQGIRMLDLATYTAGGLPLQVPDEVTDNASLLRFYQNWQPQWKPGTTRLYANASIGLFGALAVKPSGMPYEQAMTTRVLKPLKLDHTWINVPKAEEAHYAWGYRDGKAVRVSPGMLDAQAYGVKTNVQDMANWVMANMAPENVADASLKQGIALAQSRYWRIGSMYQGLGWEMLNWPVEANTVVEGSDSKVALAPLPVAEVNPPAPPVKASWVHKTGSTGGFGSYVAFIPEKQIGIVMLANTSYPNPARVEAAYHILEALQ

On to `NCc1nc(CC(=O)N[C@H]2Cc3cccc(C(=O)O)c3OB2O)cs1` [Example 19, (R)-3-(2-(2-(aminomethyl)thiazol-4-yl)acetamido)-2-hydroxy-3,4-dihydro-2H-benzo[e][1,2]oxaborinine-8-carboxylic acid], for which the IC50 in [1] was less than 100 nM; in test [2], less than 100 nM; in test [3], 100 to 1000 nM; in test [4] it was less than 100 nM; in test [5] it was less than 100 nM. Also, the “MIC (μg/mL) of Exemplary Compounds in presence of fixed β-lactams: E. coli ESBL4 CTX-M-15” value (shortened to “MIC (μg/mL) … E. coli ESBL4 CTX-M-15”) in test [6] was “C (C represents an MIC of <1 μg/mL)”. Moreover, the “MIC (μg/mL) of Exemplary Compounds in presence of fixed β-lactams: E. cl. 144200 p99 AmpC” value (from here on “MIC (μg/mL) … E. cl. 144200 p99 AmpC”) in [7] was “C (C represents an MIC of <1 μg/mL)”. For the same compound, the “MIC (μg/mL) of Exemplary Compounds in presence of fixed β-lactams: K. p. 156319 KPC-3” value (“MIC (μg/mL) … K. p. 156319 KPC-3” for short) in test [8] was “B (B represents an MIC between 1 and 16 μg/mL inclusive)”. Further, the “MIC (μg/mL) of Exemplary Compounds in presence of fixed β-lactams: P. aerug. 2775 VIM-2” value (“MIC (μg/mL) … P. aerug. 2775 VIM-2” for short) in [9] was “C (C represents an MIC of <1 μg/mL)”. Moreover, the “MIC (μg/mL) of Exemplary Compounds in presence of fixed β-lactams: K. p. A-1797 KPC-2 VIM-4” value (shortened to “MIC (μg/mL) … K. p. A-1797 KPC-2 VIM-4”) in test [10] is “B (B represents an MIC between 1 and 16 μg/mL inclusive)”. For the same compound, the “MIC (μg/mL) of Exemplary Compounds in presence of fixed β-lactams: K. p. 11978 OXA-48” value (“MIC (μg/mL) … K. p. 11978 OXA-48” below) in test [11] is “B (B represents an MIC between 1 and 16 μg/mL inclusive)”.
Take `O=C(Cn1cc([N+](=O)[O-])cn1)N[C@H]1Cc2cccc(C(=O)O)c2OB1O` [Example 56, (R)-2-hydroxy-3-(2-(4-nitro-1H-pyrazol-1-yl)acetamido)-3,4-dihydro-2H-benzo[e][1,2]oxaborinine-8-carboxylic acid]: the IC50 in [1] is less than 100 nM; in test [2] it was less than 100 nM; in test [3], 100 to 1000 nM; in test [4] it was less than 100 nM; in [5], 100 to 1000 nM. For the same compound, in test [6], the “MIC (μg/mL) … E. coli ESBL4 CTX-M-15” value was “C (C represents an MIC of <1 μg/mL)”. In addition, in test [7], the “MIC (μg/mL) … E. cl. 144200 p99 AmpC” value is listed as “C (C represents an MIC of <1 μg/mL)”. For the same compound, the “MIC (μg/mL) … K. p. 156319 KPC-3” value in test [8] is “B (B represents an MIC between 1 and 16 μg/mL inclusive)”. Moreover, in [9], the “MIC (μg/mL) … P. aerug. 2775 VIM-2” value is “B (B represents an MIC between 1 and 16 μg/mL inclusive)”. In addition, the “MIC (μg/mL) … K. p. A-1797 KPC-2 VIM-4” value in test [10] is “B (B represents an MIC between 1 and 16 μg/mL inclusive)”. The “MIC (μg/mL) … K. p. 11978 OXA-48” value in [11] was “B (B represents an MIC between 1 and 16 μg/mL inclusive)”.
Regarding `O=C(Cn1cc(C(=O)NC2CCNCC2)nn1)N[C@H]1Cc2cccc(C(=O)O)c2OB1O` [Example 83, (R)-2-hydroxy-3-(2-(4-(piperidin-4-ylcarbamoyl)-1H-1,2,3-triazol-1-yl)acetamido)-3,4-dihydro-2H-benzo[e][1,2]oxaborinine-8-carboxylic acid], the IC50 was 100 to 1000 nM in [1]; 100 to 1000 nM in test [2]; less than 100 nM in test [3]; less than 100 nM in [4]; 100 to 1000 nM in test [5]. In addition, the “MIC (μg/mL) … E. coli ESBL4 CTX-M-15” value in [6] is recorded as “C (C represents an MIC of <1 μg/mL)”. In test [7], the “MIC (μg/mL) … E. cl. 144200 p99 AmpC” value is “C (C represents an MIC of <1 μg/mL)”. Also, the “MIC (μg/mL) … K. p. 156319 KPC-3” value in [8] is given as “C (C represents an MIC of <1 μg/mL)”. In addition, in test [9], the “MIC (μg/mL) … P. aerug. 2775 VIM-2” value is given as “C (C represents an MIC of <1 μg/mL)”. Further, in test [10], the “MIC (μg/mL) … K. p. A-1797 KPC-2 VIM-4” value was “B (B represents an MIC between 1 and 16 μg/mL inclusive)”. The “MIC (μg/mL) … K. p. 11978 OXA-48” value in test [11] is “B (B represents an MIC between 1 and 16 μg/mL inclusive)”.
For the compound `N#Cc1ncn(CC(=O)N[C@H]2Cc3cccc(C(=O)O)c3OB2O)n1` [Example 25, (R)-3-(2-(3-cyano-1H-1,2,4-triazol-1-yl)acetamido)-2-hydroxy-3,4-dihydro-2H-benzo[e][1,2]oxaborinine-8-carboxylic acid], the IC50 in [1] was less than 100 nM; in test [2], less than 100 nM; in test [3], 100 to 1000 nM; in test [4], less than 100 nM; in test [5], 100 to 1000 nM. The “MIC (μg/mL) … E. coli ESBL4 CTX-M-15” value in [6] is “C (C represents an MIC of <1 μg/mL)”. In addition, the “MIC (μg/mL) … E. cl. 144200 p99 AmpC” value in test [7] is “C (C represents an MIC of <1 μg/mL)”. Also, in [8], the “MIC (μg/mL) … K. p. 156319 KPC-3” value is “B (B represents an MIC between 1 and 16 μg/mL inclusive)”. In [9], the “MIC (μg/mL) … P. aerug. 2775 VIM-2” value is “B (B represents an MIC between 1 and 16 μg/mL inclusive)”. In [10], the “MIC (μg/mL) … K. p. A-1797 KPC-2 VIM-4” value is “A (A represents an MIC>16 μg/mL)”. In addition, in [11], the “MIC (μg/mL) … K. p. 11978 OXA-48” value was “B (B represents an MIC between 1 and 16 μg/mL inclusive)”.
For `Nc1cc(-c2cn(CC(=O)N[C@H]3Cc4cccc(C(=O)O)c4OB3O)nn2)ccn1` [Example 62, (R)-3-(2-(4-(2-aminopyridin-4-yl)-1H-1,2,3-triazol-1-yl)acetamido)-2-hydroxy-3,4-dihydro-2H-benzo[e][1,2]oxaborinine-8-carboxylic acid], the IC50 in [1] was less than 100 nM; in test [2], less than 100 nM; in test [3], 100 to 1000 nM; in test [4] it was less than 100 nM; in test [5], less than 100 nM. Also, the “MIC (μg/mL) … E. coli ESBL4 CTX-M-15” value in [6] is “C (C represents an MIC of <1 μg/mL)”. Further, the “MIC (μg/mL) … E. cl. 144200 p99 AmpC” value in test [7] is listed as “C (C represents an MIC of <1 μg/mL)”. Besides, the “MIC (μg/mL) … K. p. 156319 KPC-3” value in test [8] was “C (C represents an MIC of <1 μg/mL)”. For the same compound, the “MIC (μg/mL) … P. aerug. 2775 VIM-2” value in test [9] was “B (B represents an MIC between 1 and 16 μg/mL inclusive)”. Further, the “MIC (μg/mL) … K. p. A-1797 KPC-2 VIM-4” value in test [10] was “A (A represents an MIC>16 μg/mL)”. The “MIC (μg/mL) … K. p. 11978 OXA-48” value in [11] was “B (B represents an MIC between 1 and 16 μg/mL inclusive)”.
Regarding `NCCNC(=O)c1cn(CC(=O)N[C@H]2Cc3cccc(C(=O)O)c3OB2O)nn1` [Example 37, (R)-3-(2-(4-((2-aminoethyl)carbamoyl)-1H-1,2,3-triazol-1-yl)acetamido)-2-hydroxy-3,4-dihydro-2H-benzo[e][1,2]oxaborinine-8-carboxylic acid], the IC50 is less than 100 nM in test [1]; less than 100 nM in test [2]; less than 100 nM in test [3]; less than 100 nM in test [4]; 1000 to 10000 nM in test [5]. Moreover, the “MIC (μg/mL) … E. coli ESBL4 CTX-M-15” value in test [6] is listed as “C (C represents an MIC of <1 μg/mL)”. Also, the “MIC (μg/mL) … E. cl. 144200 p99 AmpC” value in test [7] is “C (C represents an MIC of <1 μg/mL)”. Moreover, the “MIC (μg/mL) … K. p. 156319 KPC-3” value in test [8] is “B (B represents an MIC between 1 and 16 μg/mL inclusive)”. Moreover, in test [9], the “MIC (μg/mL) … P. aerug. 2775 VIM-2” value was “C (C represents an MIC of <1 μg/mL)”. Further, the “MIC (μg/mL) … K. p. A-1797 KPC-2 VIM-4” value in test [10] is “C (C represents an MIC of <1 μg/mL)”. Moreover, the “MIC (μg/mL) … K. p. 11978 OXA-48” value in [11] is “B (B represents an MIC between 1 and 16 μg/mL inclusive)”.
